{"source": "patent EP0470323A2", "about": "“New salts of the nicotinic acid with aminobenzylic compounds and their pharmaceutical use” (BROMLEY LIMITED, priority 1990, dated 1992)", "key": {"Schiosaccharomyces Pombe": {"tested_on": "Schiosaccharomyces Pombe", "assay": "Mutagenic action of urines of intragastrically treated rats on yeast", "type": "cell-based", "settings": "urines of rats treated intragastrically with two doses, with metabolic activation, beta-glucoronidase absent"}, "[1]": {"tested_on": "HeLa human cells cultures", "assay": "DNA repair synthesis (tritiated thymidine incorporation) in HeLa cell cultures", "type": "cell-based", "settings": "vs controls treated with solvent, dosages tested", "source_text": "The compound according to the Example 1 has been tested, in order to check and see its mutagenic effects."}, "[2]": {"tested_on": "hypertrigliceridaemia from olive oil in the rats", "assay": "Hypertriglyceridaemia from olive oil in the rat (serum lactescence)", "type": "in vivo", "protocol": "The method described by Zucker I.H. (Sci. Anal. Lab. 24, 114, 1972) has been followed.\nMale rats have been used, whose body weight was 150-200 g. The animals were without eating with water \"ad libitum\" and all this beginning 24 hours before the experiment. The hyperlipaemia was induced by the administration of olive oil by mouth; its composition as to the fat acids was as follows: palmitic acid 10% palmitoleic acid 1%, stearic acid 3%, […] and linoleic acid 7% (all percentages are by weight). The quantity of olive oil administered, by means of a gastric probe, was 10 ml/kg. The treatments were made by finely pounding with a china mortar and by suspending in the olive oil the examined compounds. […] The positive control animals received only olive oil; moreover, there was also a group of negative control animals who received plain water in quantities of 10 ml/kg. Every three hours a group of rats (10) was killed in a light ethereal anaesthesia, in order to be able to appreciate the percentage of triglycerides in the blood. The animals were bled by cutting them the carotids and the blood was collected in plastic test-tubes, capacity 10 ml each, and was centrifuged for ten minutes at 3500 rpm. The evaluated parameter was the lactescence of the serum, which is directly proportional to the contents of kilomicrons and therefore of triglycerides (Zucker, see above the mention). The serum has been diluted 1:5 in a physiologic solution and was read at the spectrophotometer at […] against white (physiologic solution). From the individual optical Density (D.O.) data one could calculate for each group the average of the standard error. The statistical analysis was performed by means of the t of Dunnett."}, "[3]": {"tested_on": "Hypertriglyceridaemia caused by ethanole in the rats", "assay": "Hypertriglyceridaemia caused by ethanol in rats, activity at three dose levels", "type": "in vivo", "settings": "rat; for Triglycerids M ± E.S.: 4 hours after last treatment; for Triglycerids % vs contr. positivi: 4 hours after treatment", "source_text": "For this test group the methods described by Sistori C.R. and colleagues (Atherosclerosis 30, 45; 1978) is followed.\nThe hypertriglyceridaemia has been induced into the male rats having a body weight of 160 - 170 g by giving them to drink, for 4 consecutive days, a solution of 10% ethanole in water."}, "red cells in the rat": {"tested_on": "red cells in the rat", "assay": "Red cell deformability / filtration, Schmidt-Schönbein method", "type": "in vivo", "settings": "dose 3 x 0,5 mM/kg/os, listed as Compound as Ex. 1", "source_text": "steresis (Teiltel P.: Nouv. Rev. Franç. Hématol. 7, 195, 1967). Any alteration, almost undoubtely at the level of the red cell's membrane, cause some damaging variations of the red cell's elasticity thus making more difficult the passing through the capillary vessels having more reduced diameter, and therefore increasing the flow resistance in the peripheral vessels systems. In order to determine the effect caused by the compound according to the Example 1, on these features of the red cell, the method described by Schmidt, Schonbein and colleagues (Blut 26, 369, 1973) has been used.\nIn the circulatory flow, the above mentioned capillary vessels being excluded, the blood cells do normally circulate being attached between each other because of their adhesiveness. In order to study this adhesion force, the above mentioned Teitel method has been used. Male rats of 150 g body weight approximately have been employed, and they have been treated for three consecutive days with 0,5 mM/kg/os of the compound according to the Example 1, or otherwise Buflomedil, or even Pentosiphillin used as comparison substance. After the last treatment the animals, without eating from 18 hours, have been killed in a light ethereal anaesthesy and the blood was collected over an 0,2 molar EDTA (9 and 1 volumes respectively). The red cells filtering possibility, measured with the Teitel method, wherein the quantity of red cells passing, in high haematocritical conditions, through a paper filter with holes of 20-40 µm in a previously determined time, has been ascertained as follows: the blood was centrifuged for ten minutes at 2000 rpm in order to obtain the massing of the red cells, two ml of the blood collected as above were put into an upside down turned cone made with filtering paper, being previously wetted with a physiological solution. The volume passing through the filter in 2 - 4 - 8 and 16 minutes is then measured. […]"}}}
{"compound": "COc1cc(OC)c(C(=O)CCCN2CCCC2)c(OC)c1", "note": "[Example 1, 4-(1 pyrrholydinyl)-1-(2,4,6 trimethoxypheniyl)-1-nicotinized butanone]", "values": [{"measurement": "mutagenic action", "setting": "Schiosaccharomyces Pombe", "value": "any mutagenic action did not result"}, {"measurement": "quantity of tritium-added Thymidine included into the DNA of the cells (repair synthese)", "setting": "[1]", "value": "did not determine any variation"}, {"measurement": "Serum opt.density at the indicated times (M ± E.S.)", "setting": "[2]; dose 1 mM/kg/os, 3 h", "value": "247 ± 15,3"}, {"measurement": "Serum opt.density at the indicated times (M ± E.S.)", "setting": "[2]; dose 1 mM/kg/os, 6 h", "value": "1121 ± 51,6"}, {"measurement": "Serum opt.density at the indicated times (M ± E.S.)", "setting": "[2]; dose 1 mM/kg/os, 9 h", "value": "987 ± 36,7"}, {"measurement": "Serum opt.density at the indicated times (M ± E.S.)", "setting": "[2]; dose 1 mM/kg/os, 12 h", "value": "724 ± 28,4"}, {"measurement": "Serum opt.density at the indicated times (M ± E.S.)", "setting": "[2]; dose 1 mM/kg/os, 15 h", "value": "458 ± 21,3"}, {"measurement": "Serum opt.density at the indicated times (M ± E.S.)", "setting": "[2]; dose 1 mM/kg/os, 18 h", "value": "229 ± 22,6"}, {"measurement": "Serum opt.density at the indicated times (M ± E.S.)", "setting": "[2]; dose 2 mM/kg/os, 3 h", "value": "271 ± 15,9"}, {"measurement": "Serum opt.density at the indicated times (M ± E.S.)", "setting": "[2]; dose 2 mM/kg/os, 6 h", "value": "856 ± 44,2"}, {"measurement": "Serum opt.density at the indicated times (M ± E.S.)", "setting": "[2]; dose 2 mM/kg/os, 9 h", "value": "624 ± 27,4"}, {"measurement": "Serum opt.density at the indicated times (M ± E.S.)", "setting": "[2]; dose 2 mM/kg/os, 12 h", "value": "451 ± 26,2"}, {"measurement": "Serum opt.density at the indicated times (M ± E.S.)", "setting": "[2]; dose 2 mM/kg/os, 15 h", "value": "294 ± 26,2"}, {"measurement": "Serum opt.density at the indicated times (M ± E.S.)", "setting": "[2]; dose 2 mM/kg/os, 18 h", "value": "212 ± 28,3"}, {"measurement": "Serum opt.density at the indicated times (M ± E.S.)", "setting": "[2]; dose 4 mM/kg/os, 3 h", "value": "260 ± 17,1"}, {"measurement": "Serum opt.density at the indicated times (M ± E.S.)", "setting": "[2]; dose 4 mM/kg/os, 6 h", "value": "720 ± 43,8"}, {"measurement": "Serum opt.density at the indicated times (M ± E.S.)", "setting": "[2]; dose 4 mM/kg/os, 9 h", "value": "612 ± 21,2"}, {"measurement": "Serum opt.density at the indicated times (M ± E.S.)", "setting": "[2]; dose 4 mM/kg/os, 12 h", "value": "400 ± 28,3"}, {"measurement": "Serum opt.density at the indicated times (M ± E.S.)", "setting": "[2]; dose 4 mM/kg/os, 15 h", "value": "226 ± 25,6"}, {"measurement": "Serum opt.density at the indicated times (M ± E.S.)", "setting": "[2]; dose 4 mM/kg/os, 18 h", "value": "184 ± 16,2"}, {"measurement": "Triglycerids M ± E.S.", "setting": "[3]; dose 0,5 mM/kg/os once a day for 4 days", "value": "148,2 ± 16,4 mg/100 ml"}, {"measurement": "Triglycerids % vs contr. positivi", "setting": "[3]; dose 0,5 mM/kg/os", "value": "-26,8%"}, {"measurement": "Triglycerids M ± E.S.", "setting": "[3]; dose 1,0 mM/kg/os once a day for 4 days", "value": "135,0 ± 12,6 mg/100 ml"}, {"measurement": "Triglycerids % vs contr. positivi", "setting": "[3]; dose 1,0 mM/kg/os", "value": "-33,6%"}, {"measurement": "Triglycerids M ± E.S.", "setting": "[3]; dose 2,0 mM/kg/os once a day for 4 days", "value": "112,6 ± 14,3 mg/100 ml"}, {"measurement": "Triglycerids % vs contr. positivi", "setting": "[3]; dose 2,0 mM/kg/os", "value": "-44,4%"}, {"measurement": "decrease (of triglycerides vs positive controls)", "setting": "[3]; dose of 0,4 mM/kg", "value": "26,8%"}, {"measurement": "decrease (of triglycerides vs positive controls)", "setting": "[3]; dose of 1 mM/kg per os", "value": "33,3%"}, {"measurement": "decrease (of triglycerides vs positive controls)", "setting": "[3]; dose of 2 mM/kg", "value": "44,4%"}, {"measurement": "Schmidt-Schönbein method Δ % vs contr.", "setting": "red cells in the rat", "value": "46,2%"}]}
